# Experimental data as given in patent US9073974B2, “RGD-containing cyclic peptides” (The Regents of the University of California, priority 2009, dated 2015).
# “Also recorded” adds a separate entry of the source. Bridge positions count the residues as written; N and C are the ends. Square brackets hold non-standard residues; d marks the D form. Peptide text beside a SMILES is read from it.
# Assays:
# αvβ3 integrin [1] = biological target: T1, αvβ3 integrin (Homo sapiens, UniProt P05106+P06756); experiment: Equilibrium binding and antibody blocking of LXW7-Bio on A375M melanoma cells (flow cytometry); set-up: host or cells: A375M (A4); U-87MG (A5)
# Protocol: (§1) After one time wash, samples were tested. […] Then the specific binding equaled to substraction of nonspecific binding from total binding and Kds were analyzed.
# (§2) The samples were analyzed with Coulter XL-MCL flow cytometry. The histogram and mean fluorescence intensity (MFI) were determined. The apparent Kd, IC50 were calculated using Graph Prism software (≦www.graphpad.com≧).
# αvβ3 = biological target: T2, αvβ3 (Homo sapiens, UniProt P05106+P06756); experiment: Staining of αvβ3 transfected K562 cells with biotinylated peptide and streptavidin-PE (flow cytometry); type: binding; conditions: 1 μM biotinylated peptide, Streptavidin-PE
# T2 construct: expressed in transfected cells; host or cells: K562 (gift of Dr. Yoshikazu Takada, UC Davis)
# Protocol: as §1
# (§3) To test the specificity of LXW7, LXW7 was prepared in biotinylated form and incubated with α1, α2, α3, α4, α6, α9, αIIbβ3 and αvβ3 transfected K562 and parent K562 cells (α5β1), followed by incubation with streptavidin-PE. […] The binding affinities of LXW7 and these cyclic RGD pentapeptides against αvβ3 integrin were compared based on their ability to inhibit FITC-Echistatin binding with αvβ3-K562.
# α6 = biological target: T3, α6 (Homo sapiens, UniProt P05556+P23229); experiment: Staining of α6 transfected K562 cells with biotinylated peptide and streptavidin-PE (flow cytometry); type: binding; conditions: 1 μM LXW7-Bio, Streptavidin-PE
# T3 construct: expressed in transfected cells; host or cells: K562 (gift of Dr. Yoshikazu Takada)
# Protocol: as §1, §3
# U-87 MG xenograft = experiment: In vivo and ex vivo near infra red fluorescent imaging, U-87 MG xenograft; set-up: species or system nude mice; conditions: complex of Streptavidin-Cy5.5 with biotinylated peptide, 6 hrs after tail vein injection
# Protocol: Animal studies were performed according to a protocol approved by IACUC of the University of California, Davis.
# Animals were placed on a sheet of transparency in different position. […] Images were captured with a CCD camera set at F stop=0, FOV=150, and FP=0. Six hours post injection of imaging complex, the mice were conducted in vivo imaging, then were sacrificed and organs were excised for ex vivo imaging.
# αvβ3 integrin [2] = biological target: T1, αvβ3 integrin; experiment: Equilibrium binding and antibody blocking of LXW7-Bio on U-87 MG glioblastoma cells (flow cytometry); set-up: host or cells: U-87MG (A5)
# Protocol: as §1, §2
# αIIbβ3 = biological target: T4, αIIbβ3 (Homo sapiens, UniProt P05106+P08514); experiment: Staining of αIIbβ3 transfected K562 cells with biotinylated peptide and streptavidin-PE (flow cytometry); type: binding; conditions: 1 μM biotinylated peptide, Streptavidin-PE
# T4 construct: expressed in transfected cells; host or cells: K562 (gift of Dr. Jennifer Cochran and Dr. Scott D. Blystone)
# Protocol: as §1, §3
# α9 = biological target: T5, α9 (Homo sapiens, UniProt P05556+Q13797); experiment: Staining of α9 transfected K562 cells with biotinylated peptide and streptavidin-PE (flow cytometry); type: binding; conditions: 1 μM LXW7-Bio, Streptavidin-PE
# T5 construct: expressed in transfected cells; host or cells: K562 (gift of Dr. Yoshikazu Takada)
# Protocol: as §1, §3
# α3 = biological target: T6, α3 (Homo sapiens, UniProt P05556+P26006); experiment: Staining of α3 transfected K562 cells with biotinylated peptide and streptavidin-PE (flow cytometry); type: binding; conditions: 1 μM LXW7-Bio, Streptavidin-PE
# T6 construct: expressed in transfected cells; host or cells: K562 (gift of Dr. Yoshikazu Takada)
# Protocol: as §1, §3
# α5β1 = biological target: T7, α5β1 (Homo sapiens, UniProt P05556+P08648); experiment: Staining of parent K562 cells (α5β1) with biotinylated peptide and streptavidin-PE (flow cytometry); type: binding; conditions: 1 μM biotinylated peptide, Streptavidin-PE
# T7 construct: host or cells: parent (non-transfected) K562
# Protocol: as §1, §3
# αvβ3 integrin [3] = biological target: T1, αvβ3 integrin; experiment: Equilibrium binding of LXW7-Bio to αvβ3-K562 cells (flow cytometry); set-up: expressed in transfected cells; host or cells: K562 (gift of Dr. Yoshikazu Takada, UC Davis)
# Protocol: as §1, §2
# α4 = biological target: T8, α4 (Homo sapiens, UniProt P05556+P13612); experiment: Staining of α4 transfected K562 cells with biotinylated peptide and streptavidin-PE (flow cytometry); type: binding; conditions: 1 μM LXW7-Bio, Streptavidin-PE
# T8 construct: expressed in transfected cells; host or cells: K562 (gift of Dr. Yoshikazu Takada)
# Protocol: as §1, §3
# α2 = biological target: T9, α2 (Homo sapiens, UniProt P17301); experiment: Staining of α2 transfected K562 cells with biotinylated peptide and streptavidin-PE (flow cytometry); type: binding; conditions: 1 μM LXW7-Bio, Streptavidin-PE
# T9 construct: expressed in transfected cells; host or cells: K562 (gift of Dr. Yoshikazu Takada)
# Protocol: as §1, §3
# αvβ3 integrin [4] = biological target: T1, αvβ3 integrin; experiment: Inhibition of biotinylated LXW7 binding to αvβ3-K562 cells (flow cytometry); set-up: expressed in transfected cells; host or cells: K562 (gift of Dr. Yoshikazu Takada, UC Davis); conditions: LXW9-92: inhibiting the binding of biotinylated LXW7 against αvβ3-K562 cells, LXW7 as internal reference
# Protocol: The apparent IC50 were calculated using Graph Prism software (≦www.graphpad.com≧).
# as §2
# α1 = biological target: T10, α1 (Homo sapiens, UniProt P56199); experiment: Staining of α1 transfected K562 cells with biotinylated peptide and streptavidin-PE (flow cytometry); type: binding; conditions: 1 μM LXW7-Bio, Streptavidin-PE
# T10 construct: expressed in transfected cells; host or cells: K562 (gift of Dr. Yoshikazu Takada)
# Protocol: as §1, §3
# αvβ3 integrin [5] = biological target: T1, αvβ3 integrin; experiment: Inhibition of FITC-Echistatin binding to αvβ3-K562 cells (flow cytometry); set-up: expressed in transfected cells; host or cells: K562 (gift of Dr. Yoshikazu Takada, UC Davis)
# Protocol: as §2
# [6] = 10 μg LM609 premixed with 1 μM LXW7-Bio
# T1 sequence (P06756 31-889 limits assumed): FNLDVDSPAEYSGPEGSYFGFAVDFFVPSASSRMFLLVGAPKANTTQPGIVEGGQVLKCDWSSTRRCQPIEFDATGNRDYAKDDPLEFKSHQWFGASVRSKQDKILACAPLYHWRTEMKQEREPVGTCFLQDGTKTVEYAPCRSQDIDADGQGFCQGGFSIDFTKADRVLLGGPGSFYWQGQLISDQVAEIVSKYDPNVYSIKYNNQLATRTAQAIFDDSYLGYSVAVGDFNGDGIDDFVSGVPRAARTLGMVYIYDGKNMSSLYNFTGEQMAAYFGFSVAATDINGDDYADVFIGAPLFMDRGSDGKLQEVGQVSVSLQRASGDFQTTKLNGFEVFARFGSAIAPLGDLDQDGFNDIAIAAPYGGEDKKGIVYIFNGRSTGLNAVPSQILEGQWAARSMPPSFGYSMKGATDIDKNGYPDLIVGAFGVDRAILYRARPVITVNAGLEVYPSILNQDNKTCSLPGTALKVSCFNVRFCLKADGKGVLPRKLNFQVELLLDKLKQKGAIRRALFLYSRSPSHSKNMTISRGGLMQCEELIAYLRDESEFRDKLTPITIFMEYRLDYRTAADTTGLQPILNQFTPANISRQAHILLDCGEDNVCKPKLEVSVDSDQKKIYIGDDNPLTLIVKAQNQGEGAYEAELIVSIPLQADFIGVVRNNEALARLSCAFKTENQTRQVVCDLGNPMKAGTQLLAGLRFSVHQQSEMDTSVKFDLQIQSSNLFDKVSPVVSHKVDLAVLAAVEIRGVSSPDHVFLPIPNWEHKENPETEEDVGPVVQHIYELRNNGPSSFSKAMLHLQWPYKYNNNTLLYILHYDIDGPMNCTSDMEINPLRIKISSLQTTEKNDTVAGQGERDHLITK
# T1 sequence (P06756 891-1048 partner limits assumed): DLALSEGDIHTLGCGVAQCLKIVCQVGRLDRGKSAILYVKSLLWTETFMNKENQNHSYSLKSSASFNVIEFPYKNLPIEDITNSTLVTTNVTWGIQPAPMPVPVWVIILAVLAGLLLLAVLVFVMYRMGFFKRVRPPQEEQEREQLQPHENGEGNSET
# T1 sequence (P05106 27-788): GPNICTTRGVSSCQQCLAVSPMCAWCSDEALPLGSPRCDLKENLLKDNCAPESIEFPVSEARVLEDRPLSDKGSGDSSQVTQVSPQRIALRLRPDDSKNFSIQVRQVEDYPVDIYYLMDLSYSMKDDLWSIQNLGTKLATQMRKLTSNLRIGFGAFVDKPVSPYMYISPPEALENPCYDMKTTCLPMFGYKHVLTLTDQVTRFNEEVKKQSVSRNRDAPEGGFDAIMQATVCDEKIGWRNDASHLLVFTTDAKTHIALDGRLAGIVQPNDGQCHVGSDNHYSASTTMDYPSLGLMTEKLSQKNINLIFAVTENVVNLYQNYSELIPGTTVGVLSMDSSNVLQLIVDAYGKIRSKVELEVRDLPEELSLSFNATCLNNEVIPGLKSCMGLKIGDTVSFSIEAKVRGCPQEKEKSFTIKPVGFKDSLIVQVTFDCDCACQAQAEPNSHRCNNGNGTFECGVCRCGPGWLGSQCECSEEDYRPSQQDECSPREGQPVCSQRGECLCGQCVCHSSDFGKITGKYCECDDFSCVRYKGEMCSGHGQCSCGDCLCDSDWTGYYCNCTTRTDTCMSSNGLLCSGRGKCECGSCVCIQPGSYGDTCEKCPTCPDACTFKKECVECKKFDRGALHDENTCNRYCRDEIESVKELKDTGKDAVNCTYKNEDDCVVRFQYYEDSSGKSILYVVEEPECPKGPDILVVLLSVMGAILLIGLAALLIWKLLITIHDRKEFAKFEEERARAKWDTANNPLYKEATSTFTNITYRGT
# T3 sequence (P23229 24-938 limits assumed): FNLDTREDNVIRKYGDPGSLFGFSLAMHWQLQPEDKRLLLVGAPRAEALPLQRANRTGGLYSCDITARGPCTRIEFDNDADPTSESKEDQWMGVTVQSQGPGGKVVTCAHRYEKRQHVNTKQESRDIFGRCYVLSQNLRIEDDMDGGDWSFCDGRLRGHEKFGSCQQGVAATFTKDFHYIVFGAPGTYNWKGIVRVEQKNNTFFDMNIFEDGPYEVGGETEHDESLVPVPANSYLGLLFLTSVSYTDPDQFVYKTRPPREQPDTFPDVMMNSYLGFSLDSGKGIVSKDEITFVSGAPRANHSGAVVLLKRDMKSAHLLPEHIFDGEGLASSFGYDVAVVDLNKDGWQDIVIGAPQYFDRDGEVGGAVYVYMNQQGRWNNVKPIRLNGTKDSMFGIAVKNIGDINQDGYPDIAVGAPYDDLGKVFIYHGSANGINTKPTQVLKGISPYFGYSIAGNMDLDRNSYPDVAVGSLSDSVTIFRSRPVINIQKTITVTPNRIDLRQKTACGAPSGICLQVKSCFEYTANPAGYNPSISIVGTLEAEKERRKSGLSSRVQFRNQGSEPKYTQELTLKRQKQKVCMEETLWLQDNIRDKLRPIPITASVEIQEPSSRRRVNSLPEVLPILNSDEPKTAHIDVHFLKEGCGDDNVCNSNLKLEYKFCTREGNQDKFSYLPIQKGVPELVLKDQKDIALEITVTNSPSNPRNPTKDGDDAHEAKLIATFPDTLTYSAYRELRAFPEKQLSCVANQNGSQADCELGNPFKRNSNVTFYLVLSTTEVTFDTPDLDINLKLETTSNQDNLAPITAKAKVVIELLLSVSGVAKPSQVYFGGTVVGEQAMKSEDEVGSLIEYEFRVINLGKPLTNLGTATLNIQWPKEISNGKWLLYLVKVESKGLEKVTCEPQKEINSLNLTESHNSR
# T3 sequence (P23229 942-1130 partner limits assumed): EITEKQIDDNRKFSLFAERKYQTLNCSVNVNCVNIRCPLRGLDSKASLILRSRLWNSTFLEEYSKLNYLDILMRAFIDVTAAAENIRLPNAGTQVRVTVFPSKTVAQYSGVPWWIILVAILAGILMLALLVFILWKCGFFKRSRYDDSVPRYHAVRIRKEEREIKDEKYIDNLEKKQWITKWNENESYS
# T3 sequence (P05556 21-798): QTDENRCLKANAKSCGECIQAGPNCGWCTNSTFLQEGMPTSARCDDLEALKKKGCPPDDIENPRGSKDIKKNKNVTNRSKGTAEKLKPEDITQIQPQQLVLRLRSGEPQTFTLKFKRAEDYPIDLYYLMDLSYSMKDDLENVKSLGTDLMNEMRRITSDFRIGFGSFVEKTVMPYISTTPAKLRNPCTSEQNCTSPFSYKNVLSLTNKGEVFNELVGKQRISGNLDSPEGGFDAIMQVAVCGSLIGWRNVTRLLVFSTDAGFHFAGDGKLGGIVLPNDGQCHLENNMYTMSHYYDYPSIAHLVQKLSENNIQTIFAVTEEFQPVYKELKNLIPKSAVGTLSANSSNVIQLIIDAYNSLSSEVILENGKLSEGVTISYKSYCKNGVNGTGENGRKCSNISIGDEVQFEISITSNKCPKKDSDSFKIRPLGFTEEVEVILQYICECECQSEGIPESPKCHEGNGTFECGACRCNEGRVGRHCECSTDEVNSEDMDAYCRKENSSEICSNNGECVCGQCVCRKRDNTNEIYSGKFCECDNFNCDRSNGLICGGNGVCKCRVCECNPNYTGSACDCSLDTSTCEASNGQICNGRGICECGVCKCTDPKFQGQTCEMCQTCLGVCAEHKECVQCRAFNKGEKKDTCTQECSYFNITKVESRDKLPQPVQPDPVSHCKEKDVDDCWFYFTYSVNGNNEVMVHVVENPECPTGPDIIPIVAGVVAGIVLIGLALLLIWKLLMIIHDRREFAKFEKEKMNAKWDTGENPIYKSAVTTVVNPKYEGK
# T2 sequence (P06756 31-889 limits assumed): as the sequence (P06756 31-889 limits assumed) above
# T2 sequence (P06756 891-1048 partner limits assumed): as the sequence (P06756 891-1048 partner limits assumed) above
# T2 sequence (P05106 27-788): as the sequence (P05106 27-788) above
# T7 sequence (P08648 42-894 limits assumed): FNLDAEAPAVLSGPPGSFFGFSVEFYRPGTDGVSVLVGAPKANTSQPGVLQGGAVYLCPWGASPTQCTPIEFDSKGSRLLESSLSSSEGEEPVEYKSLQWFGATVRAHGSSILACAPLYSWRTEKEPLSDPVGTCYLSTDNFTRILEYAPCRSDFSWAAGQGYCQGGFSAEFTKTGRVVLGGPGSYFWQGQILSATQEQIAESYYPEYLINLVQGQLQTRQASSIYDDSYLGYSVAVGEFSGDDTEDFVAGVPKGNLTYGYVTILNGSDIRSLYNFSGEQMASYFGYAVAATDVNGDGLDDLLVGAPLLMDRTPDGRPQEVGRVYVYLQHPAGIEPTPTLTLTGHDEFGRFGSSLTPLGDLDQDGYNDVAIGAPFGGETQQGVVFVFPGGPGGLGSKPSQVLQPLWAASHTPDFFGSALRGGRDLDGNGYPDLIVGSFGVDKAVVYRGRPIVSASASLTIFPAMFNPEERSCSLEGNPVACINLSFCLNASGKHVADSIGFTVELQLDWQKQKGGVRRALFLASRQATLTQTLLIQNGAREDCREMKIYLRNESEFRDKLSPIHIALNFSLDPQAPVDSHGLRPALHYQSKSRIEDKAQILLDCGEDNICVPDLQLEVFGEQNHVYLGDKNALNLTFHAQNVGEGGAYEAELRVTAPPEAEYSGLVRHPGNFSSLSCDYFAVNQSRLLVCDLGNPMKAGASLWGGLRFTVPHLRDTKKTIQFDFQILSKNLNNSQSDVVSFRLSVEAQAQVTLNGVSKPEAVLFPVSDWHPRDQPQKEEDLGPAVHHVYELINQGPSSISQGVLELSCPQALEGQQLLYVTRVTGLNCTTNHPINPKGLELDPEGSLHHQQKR
# T7 sequence (P08648 895-1049 partner limits assumed): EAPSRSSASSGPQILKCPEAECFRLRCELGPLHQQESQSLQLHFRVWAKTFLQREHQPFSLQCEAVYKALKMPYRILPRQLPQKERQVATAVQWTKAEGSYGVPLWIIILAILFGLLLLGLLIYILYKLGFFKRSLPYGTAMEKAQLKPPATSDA
# T7 sequence (P05556 21-798): as the sequence (P05556 21-798) above
smiles,measurement,setting,value
"CC(C)[C@H]1NC(=O)[C@@H](CC(=O)O)NC(=O)[C@H](CC(=O)O)NC(=O)CNC(=O)[C@H](CCCNC(=N)N)NC(=O)CNC(=O)[C@H](N)CSSC[C@H](C(N)=O)NC1=O [LXW7, cGRGDdvc] (H-[dC]GRGD[dD][dV][dC]-NH2; disulfide 1-8)",binding to A375M cells in presence of anti-αvβ3 antibody (LM609),αvβ3 integrin [1]; [6],markedly blocked
same,Bmax (A.U),αvβ3 integrin [1]; A375M,71 ± 4 A.U
same,Kd,αvβ3 integrin [1]; A375M,89 ± 8 nM
same,binding with αvβ3,αvβ3,strong positive binding; also recorded: strongly bound
same,binding with α6,α6,no binding; also recorded: not at all
same,"liver uptake, ex vivo imaging",U-87 MG xenograft,low
same,"tumor uptake, ex vivo imaging",U-87 MG xenograft,high
same,binding to U-87 MG cells in presence of anti-αvβ3 antibody (LM609),αvβ3 integrin [2]; [6],markedly blocked
same,Bmax (A.U),αvβ3 integrin [2]; U-87 MG,86 ± 4 A.U
same,Kd,αvβ3 integrin [2]; U-87 MG,72 ± 15 nM
same,binding with αIIbβ3,αIIbβ3,weak cross-reaction; also recorded: weakly
same,binding with α9,α9,no binding; also recorded: not at all
same,binding with α3,α3,no binding; also recorded: not at all
same,binding with α5β1 (α5),α5β1,no binding; also recorded: not at all
same,Bmax (A.U),αvβ3 integrin [3],1394 ± 57 A.U
same,Kd,αvβ3 integrin [3],76 ± 10 nM
same,binding with α4,α4,no binding
same,binding with α2,α2,no binding; also recorded: not at all
same,IC50,αvβ3 integrin [4],590 nM
same,binding with α1,α1,no binding; also recorded: not at all
same,"binding strength to αvβ3 integrin, biotinylated versus non-biotinylated, in words",αvβ3 integrin [5],near identical binding strength
same,IC50,"αvβ3 integrin [5]; LXW1-8: inhibition of binding of FITC-Echistatin against αvβ3-K562, class symbols, read-out: IC50",< 1000 nM
